Measured values published in ChEMBL document CHEMBL3046360, “Design, synthesis and preliminary antiviral screening of new N-phenylpyrazole and dihydroisoxazole derivatives” (Med Chem Res, 2010).
Calls of active or inactive are those of the source. No cut-off for these calls is given here.

What was measured:
[1] = system: Human immunodeficiency virus 1; assay: Antiviral activity against Human immunodeficiency virus 1 IIIB infected MT4 cells assessed as inhibition of virus-induced cytopathic effect up to 20 ug/ml after 5 days by MTT assay; format: functional, organism-based
[2] = system: Human alphaherpesvirus 1; assay: Antiviral activity against Human herpesvirus 1 strain KOS infected in HEL cells assessed as inhibition of virus-induced cytopathic effect after 3 days by MTT assay; format: functional, organism-based; conditions: Human alphaherpesvirus 1, KOS, 72 h
[3] = Selectivity ratio of MCC for human HEL cells to EC50 for acyclovir-resistant TK-deficient Hepres simplex virus 1 KOS; format: ADME, cell-based
[4] = Selectivity ratio of MCC for human HEL cells to EC50 for Herpes simplex virus 2 G; format: ADME, cell-based
[5] = system: Vesicular stomatitis virus; assay: Antiviral activity against Vesicular stomatitis virus infected HeLa cells assessed as inhibition of virus-induced cytopathic effect after 3 days by MTT assay; format: functional, organism-based; conditions: 72 h
[6] = system: Human alphaherpesvirus 2; assay: Antiviral activity against Human herpesvirus 2 strain G infected HEL cells assessed as inhibition of virus-induced cytopathic effect after 3 days by MTT assay; format: functional, organism-based; conditions: Human alphaherpesvirus 2, strain G, 72 h
[7] = system: Human immunodeficiency virus 2; assay: Antiviral activity against Human immunodeficiency virus type 2 (ISOLATE ROD) infected MT4 cells assessed as inhibition of virus-induced cytopathic effect up to 20 ug/ml after 5 days by MTT assay; format: functional, organism-based
[8] = Selectivity ratio of MCC for human HEL cells to EC50 for Vesicular stomatitis virus; format: ADME, cell-based
[9] = Cytotoxicity against Homo sapiens (human) HeLa cells after 3 days by microscopic analysis; format: cell-based
[10] = system: Human alphaherpesvirus 1; assay: Antiviral activity against Human herpesvirus 1 infected Vero cells assessed as reduction in viral plaque at 10 ug/ml after overnight incubation by crystal violet staining; format: functional; design: scale not given: the % may be the effect or the level left
[11] = system: Human alphaherpesvirus 1; assay: Antiviral activity against Human herpesvirus 1 infected Vero cells assessed as reduction in viral plaque at 20 ug/ml after overnight incubation by crystal violet staining; format: functional; design: scale not given: the % may be the effect or the level left
[12] = system: Human alphaherpesvirus 1; assay: Antiviral activity against acyclovir-resistant TK-deficient Hepres simplex virus 1 KOS infected in HEL cells assessed as inhibition of virus-induced cytopathic effect after 3 days by MTT assay; format: functional, organism-based; conditions: Human alphaherpesvirus 1, KOS, 72 h
[13] = system: Reovirus sp.; assay: Antiviral activity against Mammalian orthoreovirus 1 virus infected Vero cells assessed as inhibition of virus-induced cytopathic effect after 3 days by MTT assay; format: functional, organism-based; conditions: 72 h
[14] = system: Punta Toro virus; assay: Antiviral activity against Punta Toro virus infected Vero cells assessed as inhibition of virus-induced cytopathic effect after 3 days by MTT assay; format: functional, organism-based; conditions: 72 h
[15] = system: Vaccinia virus; assay: Antiviral activity against Vaccinia virus infected in HEL cells assessed as inhibition of virus-induced cytopathic effect after 3 days by MTT assay; format: functional, organism-based; conditions: Orthopoxvirus vaccinia, 72 h
[16] = system: Coxsackievirus B4; assay: Antiviral activity against Human coxsackievirus B4 infected HeLa cells assessed as inhibition of virus-induced cytopathic effect after 3 days by MTT assay; format: functional, organism-based; conditions: Enterovirus B, 72 h
[17] = Selectivity ratio of MCC for human HEL cells to EC50 for Vaccinia virus; format: ADME, cell-based
[18] = Selectivity ratio of MCC for human HEL cells to EC50 for Herpes simplex virus 1 KOS; format: ADME, cell-based
[19] = system: Hepatovirus A; assay: Antiviral activity against Hepatitis A virus infected Vero cells assessed as reduction in viral plaque at 10 ug/ml after overnight incubation by crystal violet staining; format: functional; design: scale not given: the % may be the effect or the level left
[20] = system: Vesicular stomatitis virus; assay: Antiviral activity against Vesicular stomatitis virus infected HEL cells assessed as inhibition of virus-induced cytopathic effect after 3 days by MTT assay; format: functional, organism-based; conditions: 72 h
[21] = system: Respiratory syncytial virus; assay: Antiviral activity against Respiratory syncytial virus infected HeLa cells assessed as inhibition of virus-induced cytopathic effect after 3 days by MTT assay; format: functional, organism-based; conditions: human respiratory syncytial virus, 72 h
[22] = Cytotoxicity against Homo sapiens (human) HEL cells after 3 days by microscopic analysis; format: cell-based
[23] = system: Hepatovirus A; assay: Antiviral activity against Hepatitis A virus infected Vero cells assessed as reduction in viral plaque at 20 ug/ml after overnight incubation by crystal violet staining; format: functional; design: scale not given: the % may be the effect or the level left
[24] = Cytotoxicity against Chlorocebus aethiops (African green monkey) Vero cells after 3 days by microscopic analysis; format: cell-based; conditions: chlorocebus sabaeus
[25] = system: Human respirovirus 3; assay: Antiviral activity against Human parainfluenza virus 3 infected Vero cells assessed as inhibition of virus-induced cytopathic effect after 3 days by MTT assay; format: functional, organism-based; conditions: Human respirovirus 3, Vero, 72 h
[26] = system: Sindbis virus; assay: Antiviral activity against Sindbis virus infected Vero cells assessed as inhibition of virus-induced cytopathic effect after 3 days by MTT assay; format: functional, organism-based; conditions: 72 h
[27] = system: Coxsackievirus B4; assay: Antiviral activity against Human coxsackievirus B4 infected Vero cells assessed as inhibition of virus-induced cytopathic effect after 3 days by MTT assay; format: functional, organism-based; conditions: Enterovirus B, 72 h

Structure (SMILES): c1ccc(COc2ccc(C3CC(c4ccccc4)=NN3c3ccccc3)cc2)cc1 (stereo not given)
- Activity [1]: inactive
- EC50 [2]: > 20 µg/mL
- selectivity ratio [3]: > 5
- selectivity ratio [4]: > 5
- EC50 [5]: > 20 µg/mL
- EC50 [6]: > 20 µg/mL
- Activity [7]: inactive
- selectivity ratio [8]: > 5
- MCC at 72 h [9]: 100 µg/mL
- Activity [10]: 0%
- Activity [11]: 30%
- EC50 [12]: > 20 µg/mL
- EC50 [13]: > 20 µg/mL
- EC50 [14]: > 20 µg/mL
- EC50 [15]: > 20 µg/mL
- EC50 [16]: > 20 µg/mL
- selectivity ratio [17]: > 5
- selectivity ratio [18]: > 5
- Activity [19]: 7%
- EC50 [20]: > 20 µg/mL
- EC50 [21]: > 20 µg/mL
- MCC at 72 h [22]: 100 µg/mL
- Activity [23]: 23%
- MCC at 72 h [24]: 100 µg/mL
- EC50 [25]: > 20 µg/mL
- EC50 [26]: > 20 µg/mL
- EC50 [27]: > 20 µg/mL

Structure (SMILES): Nc1ncnc2c1ncn2C[C@H](O)CO [(S)-DHPA]
- EC50 [5]: > 250 µM
- MCC at 72 h [9]: > 250 µM
- EC50 [13]: > 250 µM
- EC50 [14]: > 250 µM
- EC50 [16]: > 250 µM
- EC50 [21]: > 250 µM
- MCC at 72 h [24]: > 250 µM
- EC50 [25]: > 250 µM
- EC50 [26]: > 250 µM
- EC50 [27]: > 250 µM

Structure (SMILES): Cc1ccc(C2=NN(c3ccccc3)C(c3ccc(OCc4ccccc4)cc3)C2)cc1 (stereo not given)
- Activity [1]: inactive
- EC50 [2]: > 20 µg/mL
- selectivity ratio [3]: > 5
- selectivity ratio [4]: > 5
- EC50 [5]: > 20 µg/mL
- EC50 [6]: > 20 µg/mL
- Activity [7]: inactive
- selectivity ratio [8]: > 5
- MCC at 72 h [9]: 100 µg/mL
- Activity [10]: 31%
- Activity [11]: 58%
- EC50 [12]: > 20 µg/mL
- EC50 [13]: > 20 µg/mL
- EC50 [14]: > 20 µg/mL
- EC50 [15]: > 20 µg/mL
- EC50 [16]: > 20 µg/mL
- selectivity ratio [17]: > 5
- selectivity ratio [18]: > 5
- Activity [19]: 14%
- EC50 [20]: > 20 µg/mL
- EC50 [21]: > 20 µg/mL
- MCC at 72 h [22]: 100 µg/mL
- Activity [23]: 39%
- MCC at 72 h [24]: 100 µg/mL
- EC50 [25]: > 20 µg/mL
- EC50 [26]: > 20 µg/mL
- EC50 [27]: > 20 µg/mL

Structure (SMILES): c1ccc(COc2ccc(C3CC(c4ccccc4)=NO3)cc2)cc1 (stereo not given)
- Activity [1]: inactive
- Activity [7]: inactive
- Activity [10]: 3%
- Activity [11]: 15%
- Activity [19]: 0%
- Activity [23]: 2%
- MCC at 72 h [24]: > 100 µg/mL

Structure (SMILES): Nc1nc2c(ncn2COC(CO)CO)c(=O)[nH]1 [GANCICLOVIR]
- EC50 [6]: 0.08 µM
- EC50 [12]: 6 µM
- EC50 [15]: > 100 µM
- EC50 [20]: > 100 µM
- MCC at 72 h [22]: > 100 µM

Structure (SMILES): Cc1ccc(C2=NOC(c3ccc(OCc4ccccc4)cc3)C2)cc1 (stereo not given)
- Activity [1]: inactive
- Activity [7]: inactive
- Activity [10]: 45%
- Activity [11]: 79%
- Activity [19]: 27%
- Activity [23]: 46%
- MCC at 72 h [24]: > 100 µg/mL

Structure (SMILES): Clc1ccc(C2=NN(c3ccccc3)C(c3ccc(OCc4ccccc4)cc3)C2)cc1 (stereo not given)
- Activity [1]: inactive
- EC50 [2]: > 20 µg/mL
- selectivity ratio [3]: > 5
- selectivity ratio [4]: > 5
- EC50 [5]: > 20 µg/mL
- EC50 [6]: > 20 µg/mL
- Activity [7]: inactive
- selectivity ratio [8]: > 5
- MCC at 72 h [9]: ≥ 20 µg/mL
- Activity [10]: 19%
- Activity [11]: 43%
- EC50 [12]: > 20 µg/mL
- EC50 [13]: > 20 µg/mL
- EC50 [14]: > 20 µg/mL
- EC50 [15]: > 20 µg/mL
- EC50 [16]: > 20 µg/mL
- selectivity ratio [17]: > 5
- selectivity ratio [18]: > 5
- Activity [19]: 0%
- EC50 [20]: > 20 µg/mL
- EC50 [21]: > 20 µg/mL
- MCC at 72 h [22]: 100 µg/mL
- Activity [23]: 21%
- MCC at 72 h [24]: 100 µg/mL
- EC50 [25]: > 20 µg/mL
- EC50 [26]: > 20 µg/mL
- EC50 [27]: > 20 µg/mL

Structure (SMILES): Nc1ccn(C[C@@H](CO)OCP(=O)(O)O)c(=O)n1 [CIDOFOVIR]
- EC50 [2]: 3000 nM
- EC50 [6]: 5 µM
- EC50 [20]: > 250 µM
- MCC at 72 h [22]: > 250 µM

Structure (SMILES): Brc1ccc(C2=NOC(c3ccc(OCc4ccccc4)cc3)C2)cc1 (stereo not given)
- Activity [1]: inactive
- Activity [7]: inactive
- Activity [10]: 26.1%
- Activity [11]: 67%
- Activity [19]: 7.3%
- Activity [23]: 21%
- MCC at 72 h [24]: ≥ 20 µg/mL

Structure (SMILES): O=c1[nH]c(=O)n([C@H]2C[C@H](O)[C@@H](CO)O2)cc1/C=C/Br [BRIVUDINE]
- EC50 [6]: 126 µM
- EC50 [12]: > 250 µM
- EC50 [20]: > 250 µM
- MCC at 72 h [22]: > 250 µM

Structure (SMILES): Brc1ccc(C2=NN(c3ccccc3)C(c3ccc(OCc4ccccc4)cc3)C2)cc1 (stereo not given)
- Activity [1]: inactive
- EC50 [2]: > 20 µg/mL
- selectivity ratio [3]: > 5
- selectivity ratio [4]: > 5
- EC50 [5]: > 20 µg/mL
- EC50 [6]: > 20 µg/mL
- Activity [7]: inactive
- selectivity ratio [8]: > 5
- MCC at 72 h [9]: 100 µg/mL
- Activity [10]: 13.3%
- Activity [11]: 50%
- EC50 [12]: > 20 µg/mL
- EC50 [13]: > 20 µg/mL
- EC50 [14]: > 20 µg/mL
- EC50 [15]: > 20 µg/mL
- EC50 [16]: > 20 µg/mL
- selectivity ratio [17]: > 5
- selectivity ratio [18]: > 5
- Activity [19]: 2%
- EC50 [20]: > 20 µg/mL
- EC50 [21]: > 20 µg/mL
- MCC at 72 h [22]: 100 µg/mL
- Activity [23]: 16%
- MCC at 72 h [24]: ≥ 20 µg/mL
- EC50 [25]: > 20 µg/mL
- EC50 [26]: > 20 µg/mL
- EC50 [27]: > 20 µg/mL

Structure (SMILES): Clc1ccc(C2=NOC(c3ccc(OCc4ccccc4)cc3)C2)cc1 (stereo not given)
- Activity [1]: inactive
- Activity [7]: inactive
- Activity [10]: 38%
- Activity [11]: 60%
- Activity [19]: 10%
- Activity [23]: 58%
- MCC at 72 h [24]: > 100 µg/mL

Structure (SMILES): NC(=O)c1ncn([C@@H]2O[C@H](CO)[C@@H](O)[C@H]2O)n1 [RIBAVIRIN]
- EC50 [2]: > 250000 nM
- EC50 [6]: > 250 µM
- MCC at 72 h [9]: > 250 µM
- EC50 [12]: > 250 µM
- EC50 [13]: > 250 µM
- EC50 [20]: > 250 µM
- MCC at 72 h [22]: > 250 µM
- MCC at 72 h [24]: > 250 µM
- EC50 [25]: 45 µM
- EC50 [26]: > 250 µM
- EC50 [27]: > 250 µM
